# Results taken from patent US9963518B2, “Cyclic oligosaccharides for use in the treatment and prevention of bacterial infection” (priority 2011, dated 2018).
# Several values for one entry are separate records, joined by “and”; a condition that tells them apart may be missing. Equal entries are not always repeated. Where two headings read alike, the source gives them in different places.
# Experiments:
# [1] = molecular target: mutant Wza ΔP106-A107 (Escherichia coli, UniProt Q9X4B7, DEL106-107); test: Single-channel electrical recording, mutant Wza ΔP106-A107; format: binding, E. coli; conditions: n = 3, read-out: Dissociation constant (Kd) with mutant Wza pore
# [2] = molecular target: mutant Wza Y110G (Escherichia coli, UniProt Q9X4B7, Y110G); test: Single-channel electrical recording, mutant Wza Y110G; format: binding, E. coli; conditions: n = 3, read-out: Dissociation constant (Kd) with mutant Wza pore
# Method: Thirteen commercial cyclodextrins (CDs) were tested for their ability to block WT-Wza and the mutant Y110G/K375C (Table 1) including, neutral, negatively charged or positively charged cyclodextrins. […]
# [3] = molecular target: Wza Y110G/K375C (Escherichia coli, UniProt Q9X4B7, K375C/Y110G); test: Single-channel electrical recording, blockers against mutant Wza Y110G/K375C; format: binding, E. coli
# Method: The Wza pore was opened by replacing the tyrosines at position 110 that line the narrowest region of the lumen with glycine. To confirm that the currents observed indeed arose from the mutant pore, a cysteine was introduced in the α-helix barrel (Y110G/K375C) and would therefore yield a characteristic reversible blockade when derivatized with a suitable thiol-specific reagent.
# The unitary conductance of the Y110G/K375C pore was determined as for wt-Wza, by measuring stepwise-insertion using the same technique referenced above. The mean open current of Y110G/K375C was determined to be +85±14.1 pA (+50 mV, n=31), corresponding to 1.70±0.28 nS (+50 mV, n=31) in conductance.
# Thirteen commercial cyclodextrins (CDs) were tested for their ability to block WT-Wza and the mutant Y110G/K375C (Table 1) including, neutral, negatively charged or positively charged cyclodextrins. Testing was carried out using electrical channel recording in high salt buffer (2M KCl, 5 mM HEPES, 100 μM EDTA, 200 μM DTT) at pH 7.5.
# [4] = tested on: E. coli strain E69; test: Complement-mediated killing of bacteria in human serum; format: cell-based; conditions: for Complement-mediated killing of E69: 40% normal human serum, 1 h, 37° C.
# Method: This assay measured the killing of bacteria by the compounds of the invention mediated by the human complement system found in serum (incubation time 1 h, RPMI 1640, 37° C.). 10^3 cells of E. coli strain E69 or CWG281 were cultured in 40% (v/v) normal human serum (NHS, 1 mL, TCS Biosciences, CR100) or deactivated human serum (DHS) in RPMI 1640 medium (Sigma Aldrich, R8758) in 1.5 mL tubes in the presence of different concentrations of am8γCD (compound 13) at 37° C. for 1 h or 4 h. DHS was generated by heating NHS at 56° C. for 30 min. For the one-hour experiment, a portion of each culture (50 μL) was then spread onto a freshly prepared LB-Agar plate; for the four-hour experiment, the culture was firstly diluted 100 times (0, 1, 10, 40 μM), 10 times (100 μM) or not diluted (300 μM and 1 mM), and then a portion of each resulting culture (50 μL) was then spread onto a freshly prepared LB-Agar plate. The plates were incubated at 37° C. for 10 h after which colonies were counted. The total colonies of each sample were calculated by colonies/plate multiplying by times of dilution. P values were calculated from a one-tailed Student's t-test.
# [5] = molecular target: mutant Wza Y110G/Y373C (Escherichia coli, UniProt Q9X4B7, Y110G/Y373C); test: Single-channel electrical recording, mutant Wza Y110G/Y373C; format: binding, E. coli; conditions: 2M KCl buffer pH 7.5, +3 mV, n = 3, read-out: Dissociation constant (Kd) with mutant Wza pore
# [6] = tested on: E. coli strain E69; test: LPS exposure assay, O9a LPS to O9a LPS-specific antibodies (FACS); format: cell-based
# Method: The direct effect of the inhibition of K30 CPS transport on E. coli strain E69 is the appearance of defects in the capsule layer. This should in turn lead to exposure of O9a LPS at the cell surface. To test this hypothesis, the attachment of rabbit anti-O9a antibodies was quantified by flow cytometry (FACS), by using secondary fluorescent anti-rabbit antibodies. The design of the experiment is depicted schematically in FIG. 4a.
# E. coli strains E69 and CWG281 were grown as described above in Example 4 and the OD600 was adjusted to 0.4. The concentrations of cyclodextrin (either am8γCD (compound 13), am6αCD (compound 3) or am7βCD (compound 10)) present in the growth media were 10 nM, 100 nM, 1 μM, 10 μM, 50 μM, 100 μM and 1 mM. 50 μL samples of each were centrifuged at 3,000×g for 10 min to remove the medium, washed with PBS and resuspended in 50 μL PBS. O9a antiserum (0.5 μL) was then added. The mixtures were incubated on ice for 1 h (to compare the effects of am6αCD, am7βCD and am8γCD on the exposure of LPS) or 2 h (for the estimation of minimum effective concentration of am8γCD required to expose LPS to antibodies), followed by centrifugation at 3,000×g for 10 min and washing with PBS. The pellets were resuspended in PBS (50 μL), to which Alexa Fluor 488 Goat Anti-Rabbit IgG secondary antibody (1 μL, Life Technologies, A11034, λex 495 nm, λem 519 nm) was added, followed by incubation for 1 h on ice. The cells were then centrifuged at 3,000×g for 10 min. The pellets were resuspended in PBS (1 mL), followed by analysis by flow cytometry (FACS) using a Becton-Dickinson FACSCalibur. 10,000 cells were analysed for each sample. Fluorescence was measured in the FL1 channel (530 nm).
smiles,measurement,setting,value
"NC[C@H]1O[C@@H]2O[C@H]3[C@H](O)[C@@H](O)[C@@H](O[C@H]4[C@H](O)[C@@H](O)[C@@H](O[C@H]5[C@H](O)[C@@H](O)[C@@H](O[C@H]6[C@H](O)[C@@H](O)[C@@H](O[C@H]7[C@H](O)[C@@H](O)[C@@H](O[C@H]8[C@H](O)[C@@H](O)[C@@H](O[C@H]9[C@H](O)[C@@H](O)[C@@H](O[C@H]1[C@H](O)[C@H]2O)O[C@@H]9CN)O[C@@H]8CN)O[C@@H]7CN)O[C@@H]6CN)O[C@@H]5CN)O[C@@H]4CN)O[C@@H]3CN [No. 12, Octacis (6-amino-6-deoxy)-γ-cyclodextrin]",Kd,"[1]; ΔP106-A107, 300 mM KCl, 5 mM HEPES, pH 7.5, +5 mV",0.044 ± 0.025 µM
same,Kd,"[1]; ΔP106-A107, 2M KCl buffer pH 7.5, +3 mV",7.8 ± 5.2 µM
same,Kd,"[2]; 300 mM KCl, 5 mM HEPES, pH 7.5, +10 mV",0.0056 ± 0.0024 µM
same,Kd,"[2]; 2M KCl buffer pH 7.5, +3 mV",4.7 ± 4.6 µM
same,Kd,"[3]; Kd, interaction with mutant Wza, Y110G/K375C, +3 mV, n = 3, 2M KCl buffer pH 7.5",12.3 µM and 12 µM
same,Interaction with mutant Wza,"[3]; Y110G/K375C, 2M KCl, 5 mM HEPES, 100 μM EDTA, 200 μM DTT, pH 7.5",not observed^c
same,Binding strength relative to am7βCD,[3]; at different voltages,≥ 10 times
same,Complement-mediated killing of E69,[4]; 15 μM,21%
same,Complement-mediated killing of E69,[4]; 100 μM,51%
same,Complement-mediated killing of E69,[4]; 1 mM,84%
same,Growth of E69,"[4]; 1 mM, normal human serum, incubation 4 h",completely inhibited the growth
same,EC50,"[4]; Escherichia coli, E69, normal human serum, incubation 4 h, n=3, read-out: Concentration required to kill half of the bacteria (EC50)",3.2 ± 0.5 µM
same,Effect on survival of E69 in the absence of NHS,"[4]; compound alone at 100 μM or 1 mM, no normal human serum",no significant effect
same,Kd,[5],570 ± 520 µM
same,LPS exposure by median fluorescence intensity,"[6]; 1 μM, antiserum incubation 2 h",5.1%
same,LPS exposure by percentage of labelled cells,"[6]; 1 μM, antiserum incubation 2 h",44%
same,LPS exposure by percentage of labelled cells,"[6]; 50 μM, antiserum incubation 1 h",36%
same,LPS exposure by median fluorescence intensity,"[6]; 50 μM, antiserum incubation 1 h, relative to CWG281 positive control",4.9%
same,LPS exposure by percentage of labelled cells,"[6]; 1 mM, antiserum incubation 1 h",96%
same,LPS exposure by median fluorescence intensity,"[6]; 1 mM, antiserum incubation 1 h, relative to CWG281 positive control",20%
